Laboratory results reported in patent EP4745138A1, “THIO-GLUTARIMIDO ISOINDOLINONE DERIVATIVE, BIFUNCTIONAL PROTEIN DEGRADER CONTAINING SAME, AND USES THEREOF” (Gluetacs Therapeutics (Shanghai) Co., Ltd., priority 2023, dated 2025).
Read-outs that look alike come from different tables or passages of the source. Values belong to the compound of their own block, whether it stands above or below them.

How the values were obtained:
MM.1S = assay: Tumor cell proliferation inhibition (CellTiter-Meiluncell Luminescent Cell Viability Assay); assay type: cell-based; conditions: for inhibition at 0.01 µM / inhibition at 0.5 µM: Homo sapiens, MM1.S; for inhibition at 0.01 µM: read-out: Inhibition Rate at 10 nM (%); for inhibition at 0.5 µM: read-out: Inhibition Rate at 500 nM (%)
Experimental: (§1) The tumor cells used herein were cultured in a cell culture medium listed in table 3 at 37°C in an incubator with 5% CO2. Prior to experimentation, all cell lines used were correctly identified by STR profiling, and tested negative for mycoplasma contamination using a mycoplasma detection kit through routine screenings. Table 3. Tumor cells and cell culture medium used in the present disclosure
(§2) The IC50 values of the compounds of the present disclosure (including the compounds in Table 1, Table 2, and Examples) were determined using the CellTiter-Meiluncell Luminescent Cell Viability Assay Kit from Dalian Meilun Biotech Co., Ltd. The detailed procedure is as follows: Tumor cells were seeded in 96-well cell culture plates at the densities specified in Table 4. On the following day, the test compounds of the present disclosure were subjected to serial dilution. […] Subsequently, 0.5 µL of the test compound dilution was transferred into the 96-well plate containing the cells, with each well containing 100 µL of cell culture medium. […] Into the 96-well plate, the diluted test compounds and corresponding detection reagents were added, resulting in final test compound concentrations of 500 nM and 10 nM, respectively. The experimental procedure is described below using the diluted 2 µM test compound as an example.
(§3) 0.5 µL of the aforementioned diluted compound of the present disclosure (including the compounds in Table 1, Table 2, and Examples) was added to the seeded cells in 100 µL of medium, yielding a final test compound concentration of 10 nM. After the cells were treated with the compounds of the present disclosure for a specified period, the cell viability assay reagent was added to the culture medium according to the kit's instructions to determine cell viability. […] All controls were treated using the same procedure as the compounds of the present disclosure. […] Seeding protocol and treatment time for tumor cells

RPMI-8226 = assay: as above; assay type: cell-based; conditions: Homo sapiens, 96 hours; for inhibition at 0.01 µM: 10 nM, read-out: Inhibition Rate at 10 nM (%); for inhibition at 0.5 µM: 500 nM, read-out: Inhibition Rate at 500 nM (%)
Experimental: as §1, §2, §3

MV-4-11 = assay: as above; assay type: cell-based; conditions: Homo sapiens, 96 hours; for inhibition at 0.01 µM: MV4-11, 10 nM, read-out: Inhibition Rate at 10 nM (%); for inhibition at 0.5 µM: MV4-11, 500 nM, read-out: Inhibition Rate at 500 nM (%)
Experimental: as §1, §2, §3

[1] = biological target: T1, human Cereblon WT GST-tagged protein (Homo sapiens, UniProt Q96SW2); assay: CRBN-binding affinity, HTRF (CEREBLON BINDING kit); conditions: for inhibition at 0.5 µM: read-out: Inhibition Rate at 0.5 µM (%); for inhibition at 2 µM: read-out: Inhibition Rate at 2 µM (%)
T1 construct: purchased CISBIO 64BDCRBNPEH
Procedure, shortened: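 HTRF competition against a thalidomide-red probe using GST-tagged Cereblon and Eu-labelled anti-GST antibody. Test concentrations (final): 2 µM and 0.5 µM in diluent #9 (1X); blank controls lack compound and protein, containing PROTAC binding buffer.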

SW620 = assay: Tumor cell proliferation inhibition (CellTiter-Meiluncell Luminescent Cell Viability Assay); assay type: cell-based; conditions: Homo sapiens, 96 hours; for inhibition at 0.01 µM: SW-620, 10 nM, read-out: Inhibition Rate at 10 nM (%); for inhibition at 0.5 µM: SW-620, 500 nM, read-out: Inhibition Rate at 500 nM (%)
Experimental: as §1, §2, §3

[2] = Table I-8, SMARCA2/4 inhibitors
[3] = MM.1S, 10 nM, 96 hours, Table I-11, RSK inhibitors
[4] = MM.1S, 500 nM, 96 hours, Table I-11, RSK inhibitors

T1 sequence (Q96SW2 whole entry): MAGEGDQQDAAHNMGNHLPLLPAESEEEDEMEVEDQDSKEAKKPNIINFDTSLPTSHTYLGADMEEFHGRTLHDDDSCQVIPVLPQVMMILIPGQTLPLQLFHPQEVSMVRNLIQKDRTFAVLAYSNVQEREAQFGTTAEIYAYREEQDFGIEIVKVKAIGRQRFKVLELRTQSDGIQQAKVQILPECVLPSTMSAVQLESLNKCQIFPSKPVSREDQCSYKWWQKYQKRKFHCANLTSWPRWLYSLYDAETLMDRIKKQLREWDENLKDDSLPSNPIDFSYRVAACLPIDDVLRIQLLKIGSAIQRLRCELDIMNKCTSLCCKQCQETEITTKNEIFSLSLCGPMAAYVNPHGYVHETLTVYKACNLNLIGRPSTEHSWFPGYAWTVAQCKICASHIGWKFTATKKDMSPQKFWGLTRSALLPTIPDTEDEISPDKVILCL

Structure (SMILES): Nc1nnc(-c2ccccc2O)cc1N1CCNCC1 [GTC00645]
inhibition at 0.01 µM (MM.1S; 96 h): 15 to 20%
inhibition at 0.5 µM (MM.1S; 96 h): 15 to 20%
inhibition at 0.01 µM (RPMI-8226; [2]): -5 to 0%
inhibition at 0.5 µM (RPMI-8226; [2]): -5 to 0%
inhibition at 0.01 µM (MV-4-11; [2]): 10 to 15%
inhibition at 0.5 µM (MV-4-11; [2]): 10 to 15%

inhibition at 0.5 µM [1]: 53 to 60%
inhibition at 2 µM [1]: 60 to 80%
Structure (SMILES): Cc1cc(S(=O)(=O)N2CCN(Cc3ccc4c(c3)CN(C3CCC(=O)NC3=O)C4=S)CC2)ccc1Nc1ncc(Br)c(Nc2cccc(F)c2C(N)=O)n1 (stereo not shown) [GT-08714, 2-((5-bromo-2-((4-((4-((2-(2,6-dioxopiperidin-3-yl)-1-thioxoisoindolin-5-yl)methyl)piperazin-1-yl)sulfonyl)-2-methylphenyl)amino)pyrimidin-4-yl)amino)-6-fluorobenzamide]
inhibition at 0.01 µM (MM.1S; MM.1S, 10 nM, 96 hours, Table I-8, SMARCA2/4 inhibitors): 30 to 40%
inhibition at 0.5 µM (MM.1S; MM.1S, 500 nM, 96 hours, Table I-8, SMARCA2/4 inhibitors): 50 to 60%
inhibition at 0.01 µM (RPMI-8226; [2]): 30 to 40%
inhibition at 0.5 µM (RPMI-8226; [2]): 40 to 50%

Structure (SMILES): O=C1CCC(N2Cc3c(CN4CCN(c5ccc(-c6cc(F)c7c(c6)C(=O)N(C(C(=O)Nc6nccs6)c6ncn8c6CCC8)C7)cc5)CC4)cccc3C2=S)C(=O)N1 (stereo not shown) [GT-09429, 2-(6,7-dihydro-5H-pyrrolo[1,2-c]imidazol-1-yl)-2-(6-(4-(4-((2-(2,6-dioxopiperidin-3-yl)-1-thioxoisoindolin-4-yl)methyl)piperazin-1-yl)phenyl)-4-fluoro-1-oxoisoindolin-2-yl)-N-(thiazol-2-yl)acetamide]
inhibition at 0.01 µM (SW620; Table I-3, EGFR inhibitors): 10 to 20%
inhibition at 0.5 µM (SW620; Table I-3, EGFR inhibitors): 70 to 80%

inhibition at 0.5 µM [1]: 53 to 60%
inhibition at 2 µM [1]: 80 to 100%
Structure (SMILES): CC1(C)CCC(c2ccc(Cl)cc2)=C(CN2CCN(c3ccc(C(=O)NS(=O)(=O)c4ccc(N[C@H](CCN5CCN(Cc6ccc7c(c6)CN(C6CCC(=O)NC6=O)C7=S)CC5)CSc5ccccc5)c(S(=O)(=O)C(F)(F)F)c4)cc3)CC2)C1 (stereo partly drawn) [GT-09415, 4-(4-((4'-chloro-4,4-dimethyl-3,4,5,6-tetrahydro-[1,1'-biphenyl]-2-yl)methyl)piperazin-1-yl)-N-((4-(((2R)-4-(4-((2-(2,6-dioxopiperidin-3-yl)-1-thioxoisoindolin-5-yl)methyl)piperazin-1-yl)-1-(phenylthio)butan-2-yl)amino)-3-((trifluoromethyl)sulfonyl)phenyl)sulfonyl)benzamide]
inhibition at 0.01 µM (SW620; Table I-15, BCL-2 inhibitors): 30 to 40%
inhibition at 0.5 µM (SW620; Table I-15, BCL-2 inhibitors): 80 to 100%

Structure (SMILES): CNC(=O)c1ccc(Nc2ncc(C(F)(F)F)c(NCc3nccnc3N(C)S(C)(=O)=O)n2)cc1 [Defactinib, reference compound]
inhibition at 0.01 µM (SW620; Table I-12, FAK inhibitors): 0 to 5%
inhibition at 0.5 µM (SW620; Table I-12, FAK inhibitors): 5 to 10%
inhibition at 0.01 µM (MM.1S; MM.1S, 10 nM, 96 hours, Table I-12, FAK inhibitors): 10 to 20%
inhibition at 0.5 µM (MM.1S; MM.1S, 500 nM, 96 hours, Table I-12, FAK inhibitors): 5 to 10%
inhibition at 0.01 µM (MV-4-11; Table I-12, FAK inhibitors): 0 to 5%
inhibition at 0.5 µM (MV-4-11; Table I-12, FAK inhibitors): 50 to 60%

inhibition at 0.5 µM [1]: 80 to 100%
inhibition at 2 µM [1]: 60 to 80%
Structure (SMILES): C[C@@H]1CNC(=O)c2cc3ccc(C(=O)Nc4cnn(Cc5ccc(N6CCN(Cc7ccc8c(c7)CN(C7CCC(=O)NC7=O)C8=S)CC6)cc5)c4)nc3n21 (stereo partly drawn) [GT-08777, (9R)-N-(1-(4-(4-((2-(2,6-dioxopiperidin-3-yl)-1-thioxoisoindolin-5-yl)methyl)piperazin-1-yl)benzyl)-1H-pyrazol-4-yl)-9-methyl-6-oxo-6,7,8,9-tetrahydropyrido[3',2':4,5]pyrrolo[1,2-a]pyrazine-2-carboxamide]
inhibition at 0.01 µM (MM.1S; [3]): 20 to 30%
inhibition at 0.5 µM (MM.1S; [4]): 50 to 60%
inhibition at 0.01 µM (RPMI-8226; Table I-11, RSK inhibitors): 0 to 5%
inhibition at 0.5 µM (RPMI-8226; Table I-11, RSK inhibitors): 40 to 50%
inhibition at 0.01 µM (MV-4-11; Table I-11, RSK inhibitors): 20 to 30%
inhibition at 0.5 µM (MV-4-11; Table I-11, RSK inhibitors): 60 to 70%

Structure (SMILES): Nc1cccc2c1CN(C1CCC(=O)NC1=O)C2=O (stereo not shown) [Lenalidomide, lenalidomide, reference compound]
inhibition at 0.5 µM (MM.1S; 96 h): 30 to 35%
Inhibition Rate at 10 nM (%) (MM.1S; MM.1S, 10 nM, 96 hours, Table I-16, compounds of Formula (II)): ln2

Structure (SMILES): CC1(C)CCC(CN2CCN(c3ccc(C(=O)NS(=O)(=O)c4ccc(NCC5CCOCC5)c([N+](=O)[O-])c4)c(Oc4cnc5[nH]ccc5c4)c3)CC2)=C(c2ccc(Cl)cc2)C1 [ABT-199, Venetoclax, reference compound]
inhibition at 0.01 µM (SW620; Table I-15, BCL-2 inhibitors): 5 to 10%
inhibition at 0.5 µM (SW620; Table I-15, BCL-2 inhibitors): 5 to 10%

inhibition at 0.5 µM [1]: 80 to 100%
inhibition at 2 µM [1]: 80 to 100%
Structure (SMILES): C[C@@H]1CNC(=O)c2cc3ccc(C(=O)Nc4cnn(Cc5ccc(N6CCC(N7CCN(Cc8ccc9c(c8)CN(C8CCC(=O)NC8=O)C9=S)CC7)CC6)cc5)c4)nc3n21 (stereo partly drawn) [GT-08778, (9R)-N-(1-(4-(4-(4-((2-(2,6-dioxopiperidin-3-yl)-1-thioxoisoindolin-5-yl)methyl)piperazin-1-yl)piperidin-1-yl)benzyl)-1H-pyrazol-4-yl)-9-methyl-6-oxo-6,7,8,9-tetrahydropyrido[3',2':4,5]pyrrolo[1,2-a]pyrazine-2-carboxamide]
inhibition at 0.01 µM (MM.1S; [3]): 40 to 50%
inhibition at 0.5 µM (MM.1S; [4]): 80 to 100%
inhibition at 0.01 µM (RPMI-8226; Table I-11, RSK inhibitors): 10 to 20%
inhibition at 0.5 µM (RPMI-8226; Table I-11, RSK inhibitors): 50 to 60%
inhibition at 0.01 µM (MV-4-11; Table I-11, RSK inhibitors): 50 to 60%
inhibition at 0.5 µM (MV-4-11; Table I-11, RSK inhibitors): 80 to 100%

Structure (SMILES): CN(C)C(=O)c1cc2cnc(Nc3ccc(N4CCNCC4)cn3)nc2n1C1CCCC1 [Ribociclib, reference compound]
inhibition at 0.01 µM (MM.1S; MM.1S, 10 nM, 96 hours, Table I-9, CDK4/6 inhibitors): 10 to 20%
inhibition at 0.5 µM (MM.1S; MM.1S, 500 nM, 96 hours, Table I-9, CDK4/6 inhibitors): 10 to 20%
inhibition at 0.01 µM (MV-4-11; Table I-9, CDK4/6 inhibitors): 5 to 10%
inhibition at 0.5 µM (MV-4-11; Table I-9, CDK4/6 inhibitors): 20 to 30%

Structure (SMILES): CC(C)CCN1c2nc(Nc3cc(F)c(O)c(F)c3)ncc2N(C)C(=O)C1C (stereo not shown) [BI-D1870, reference compound]
inhibition at 0.01 µM (MM.1S; 96 h): 114%
inhibition at 0.5 µM (MM.1S; 96 h): 20 to 30%
inhibition at 0.01 µM (RPMI-8226; Table I-11, RSK inhibitors): 10 to 20%
inhibition at 0.5 µM (RPMI-8226; Table I-11, RSK inhibitors): 10 to 20%
inhibition at 0.01 µM (MV-4-11; Table I-11, RSK inhibitors): 0 to 5%
inhibition at 0.5 µM (MV-4-11; Table I-11, RSK inhibitors): 20 to 30%

inhibition at 0.5 µM [1]: 53 to 60%
inhibition at 2 µM [1]: 80 to 100%
Structure (SMILES): O=C1CCC(N2Cc3c(CN4CCC(n5cc(NC(=O)c6cnn7ccc(N8CCOCC8)nc67)c(C(F)F)n5)CC4)cccc3C2=S)C(=O)N1 (stereo not shown) [GT-05287, N-(3-(difluoromethyl)-1-(1-((2-(2,6-dioxopiperidin-3-yl)-1-thioxoisoindolin-4-yl)methyl)piperidin-4-yl)-1H-pyrazol-4-yl)-5-morpholinopyrazolo[1,5-a]pyrimidine-3-carboxamide]
inhibition at 0.01 µM (MV-4-11; Table I-6, IRAK4 inhibitors): 10 to 20%
inhibition at 0.5 µM (MV-4-11; Table I-6, IRAK4 inhibitors): 70 to 80%
